Measured values as given in PubChem BioAssay AID1259407 (Chemical Carcinogenesis Research Information System (CCRIS), 2018).
The source made the active and inactive calls. The rule behind the calls is not given here.

Test system: CCRIS mutagenicity, Ames/micronucleus/aberration tests
Test: CCRIS mutagenicity studies

For CC(C)O, the mutagenic call (Test System: AMES SALMONELLA TYPHIMURIUM, Strain/Indicator: TA97, Metabolic Activation: HAMSTER, LIVER, S-9, AROCLOR 1254 (10 OR 30%), Method: PREINCUBATION) was “inactive; negative”, the mutagenic call (Test System: AMES SALMONELLA TYPHIMURIUM, Strain/Indicator: TA97, Metabolic Activation: NONE, Method: PREINCUBATION) was “inactive; negative” and the mutagenic call (Test System: AMES SALMONELLA TYPHIMURIUM, Strain/Indicator: TA97, Metabolic Activation: RAT, LIVER, S-9, AROCLOR 1254 (10 OR 30%), Method: PREINCUBATION) was “inactive; negative”. The mutagenic call (Test System: AMES SALMONELLA TYPHIMURIUM, Strain/Indicator: TA98, Metabolic Activation: HAMSTER, LIVER, S-9, AROCLOR 1254 (10 OR 30%), Method: PREINCUBATION) was “inactive; negative”, the mutagenic call (Test System: AMES SALMONELLA TYPHIMURIUM, Strain/Indicator: TA98, Metabolic Activation: NONE, Method: PREINCUBATION) was “inactive; negative” and the mutagenic call (Test System: AMES SALMONELLA TYPHIMURIUM, Strain/Indicator: TA98, Metabolic Activation: RAT, LIVER, S-9, AROCLOR 1254 (10 OR 30%), Method: PREINCUBATION) was “inactive; negative”. The mutagenic call (Test System: AMES SALMONELLA TYPHIMURIUM, Strain/Indicator: TA98, Metabolic Activation: RAT, LIVER, S-9, KC 500, Method: PREINCUBATION) was “inactive; negative”, the mutagenic call (Test System: AMES SALMONELLA TYPHIMURIUM, Strain/Indicator: TA98, Metabolic Activation: RAT, LIVER, S-9, PHENOBARBITAL AND BETA-NAPHTHOFLAVONE, Method: PREINCUBATION) was “inactive; negative” and the mutagenic call (Test System: AMES SALMONELLA TYPHIMURIUM, Strain/Indicator: TA100, Metabolic Activation: HAMSTER, LIVER, S-9, AROCLOR 1254 (10 OR 30%), Method: PREINCUBATION) was “inactive; negative”. The mutagenic call (Test System: AMES SALMONELLA TYPHIMURIUM, Strain/Indicator: TA100, Metabolic Activation: NONE, Method: PREINCUBATION) was “inactive; negative”, the mutagenic call (Test System: AMES SALMONELLA TYPHIMURIUM, Strain/Indicator: TA100, Metabolic Activation: RAT, LIVER, S-9, AROCLOR 1254 (10 OR 30%), Method: PREINCUBATION) was “inactive; negative” and the mutagenic call (Test System: AMES SALMONELLA TYPHIMURIUM, Strain/Indicator: TA100, Metabolic Activation: RAT, LIVER, S-9, KC 500, Method: PREINCUBATION) was “inactive; negative”. For the same compound, the mutagenic call (Test System: AMES SALMONELLA TYPHIMURIUM, Strain/Indicator: TA100, Metabolic Activation: RAT, LIVER, S-9, PHENOBARBITAL AND BETA-NAPHTHOFLAVONE, Method: PREINCUBATION) was “inactive; negative”, the mutagenic call (Test System: AMES SALMONELLA TYPHIMURIUM, Strain/Indicator: TA102, Metabolic Activation: NONE, Method: PREINCUBATION) was “inactive; negative” and the mutagenic call (Test System: AMES SALMONELLA TYPHIMURIUM, Strain/Indicator: TA102, Metabolic Activation: RAT, LIVER, S-9, PHENOBARBITAL AND BETA-NAPHTHOFLAVONE, Method: PREINCUBATION) was “inactive; negative”. The mutagenic call (Test System: AMES SALMONELLA TYPHIMURIUM, Strain/Indicator: TA104, Metabolic Activation: NONE, Method: PREINCUBATION) was “inactive; negative”, the mutagenic call (Test System: AMES SALMONELLA TYPHIMURIUM, Strain/Indicator: TA104, Metabolic Activation: RAT, LIVER, S-9, PHENOBARBITAL AND BETA-NAPHTHOFLAVONE, Method: PREINCUBATION) was “inactive; negative” and the mutagenic call (Test System: AMES SALMONELLA TYPHIMURIUM, Strain/Indicator: TA1535, Metabolic Activation: HAMSTER, LIVER, S-9, AROCLOR 1254 (10 OR 30%), Method: PREINCUBATION) was “inactive; negative”. For the same compound, the mutagenic call (Test System: AMES SALMONELLA TYPHIMURIUM, Strain/Indicator: TA1535, Metabolic Activation: NONE, Method: PREINCUBATION) was “inactive; negative”, the mutagenic call (Test System: AMES SALMONELLA TYPHIMURIUM, Strain/Indicator: TA1535, Metabolic Activation: RAT, LIVER, S-9, AROCLOR 1254 (10 OR 30%), Method: PREINCUBATION) was “inactive; negative” and the mutagenic call (Test System: AMES SALMONELLA TYPHIMURIUM, Strain/Indicator: TA1535, Metabolic Activation: RAT, LIVER, S-9, KC 500, Method: PREINCUBATION) was “inactive; negative”. For the same compound, the mutagenic call (Test System: AMES SALMONELLA TYPHIMURIUM, Strain/Indicator: TA1535, Metabolic Activation: RAT, LIVER, S-9, PHENOBARBITAL AND BETA-NAPHTHOFLAVONE, Method: PREINCUBATION) was “inactive; negative”, the mutagenic call (Test System: AMES SALMONELLA TYPHIMURIUM, Strain/Indicator: TA1537, Metabolic Activation: HAMSTER, LIVER, S-9, AROCLOR 1254 (30%), Method: PREINCUBATION) was “inactive; negative” and the mutagenic call (Test System: AMES SALMONELLA TYPHIMURIUM, Strain/Indicator: TA1537, Metabolic Activation: NONE, Method: PREINCUBATION) was “inactive; negative”. For the same compound, the mutagenic call (Test System: AMES SALMONELLA TYPHIMURIUM, Strain/Indicator: TA1537, Metabolic Activation: RAT, LIVER, S-9, AROCLOR 1254 (30%), Method: PREINCUBATION) was “inactive; negative”, the mutagenic call (Test System: AMES SALMONELLA TYPHIMURIUM, Strain/Indicator: TA1537, Metabolic Activation: RAT, LIVER, S-9, KC 500, Method: PREINCUBATION) was “inactive; negative” and the mutagenic call (Test System: AMES SALMONELLA TYPHIMURIUM, Strain/Indicator: TA1537, Metabolic Activation: RAT, LIVER, S-9, PHENOBARBITAL AND BETA-NAPHTHOFLAVONE, Method: PREINCUBATION) was “inactive; negative”. The mutagenic call (Test System: AMES SALMONELLA TYPHIMURIUM, Strain/Indicator: TA1538, Metabolic Activation: NONE, Method: PREINCUBATION) was “inactive; negative”, the mutagenic call (Test System: AMES SALMONELLA TYPHIMURIUM, Strain/Indicator: TA1538, Metabolic Activation: RAT, LIVER, S-9, KC 500, Method: PREINCUBATION) was “inactive; negative” and the mutagenic call (Test System: CHINESE HAMSTER OVARY, Strain/Indicator: CHO-K1-BH4 (HGPRT), Metabolic Activation: NONE) was “inactive; negative”. The mutagenic call (Test System: CHINESE HAMSTER OVARY, Strain/Indicator: CHO-K1-BH4 (HGPRT), Metabolic Activation: RAT, LIVER, S-9, AROCLOR 1254) was “inactive; negative”, the mutagenic call (Test System: E. COLI, Strain/Indicator: WP2UVRA/PKM101, Metabolic Activation: NONE, Method: PREINCUBATION) was “inactive; negative” and the mutagenic call (Test System: E. COLI, Strain/Indicator: WP2UVRA/PKM101, Metabolic Activation: RAT, LIVER, S-9, PHENOBARBITAL AND BETA-NAPHTHOFLAVONE, Method: PREINCUBATION) was “inactive; negative”. The mutagenic call (Test System: E. COLI, Strain/Indicator: WP2 UVRA, Metabolic Activation: NONE, Method: PREINCUBATION) was “inactive; negative”, the mutagenic call (Test System: E. COLI, Strain/Indicator: WP2UVRA, Metabolic Activation: NONE, Method: PREINCUBATION) was “inactive; negative” and the mutagenic call (Test System: E. COLI, Strain/Indicator: WP2 UVRA, Metabolic Activation: RAT, LIVER, S-9, KC 500, Method: PREINCUBATION) was “inactive; negative”. The mutagenic call (Test System: E. COLI, Strain/Indicator: WP2UVRA, Metabolic Activation: RAT, LIVER, S-9, PHENOBARBITAL AND BETA-NAPHTHOFLAVONE, Method: PREINCUBATION) was “inactive; negative”.
With Cc1cc2c3ccccc3cc3ccc4cccc1c4c32 the mutagenic call (Test System: AMES SALMONELLA TYPHIMURIUM, Strain/Indicator: TA100, Metabolic Activation: RAT, INTACT HEPATOCYTES, AROCLOR 1254, Method: PREINCUBATION) was “active; positive” and the mutagenic call (Test System: AMES SALMONELLA TYPHIMURIUM, Strain/Indicator: TA100, Metabolic Activation: RAT, NADPH-FORTIFIED HOMOGENIZED HEPATOCYTES, AROCLOR 1254, Method: PREINCUBATION) was “active; positive”.
In the case of C[C@@H]1Cc2ccc(C(=O)N[C@@H](Cc3ccccc3)C(=O)O)c(O)c2C(=O)O1, the mutagenic call (End Point: IN VIVO CHROMOSOMAL ABERRATIONS, Test System: SPLENOCYTES, Species: RAT, Strain/Sex: FISCHER 344/MALE, Route: ORAL (GAVAGE)) is reported as “inactive; negative”, the mutagenic call (Test System: AMES SALMONELLA TYPHIMURIUM, Strain/Indicator: TA102, Metabolic Activation: NONE, Method: STANDARD PLATE) is reported as “inactive; negative” and the mutagenic call (Test System: AMES SALMONELLA TYPHIMURIUM, Strain/Indicator: TA102, Metabolic Activation: RAT, LIVER, S-9, AROCLOR 1254, Method: STANDARD PLATE) is reported as “inactive; negative”.
